Measured values taken from patent US10888544B2, “Methods for treating Gaucher disease” (Genzyme Corporation, priority 2017, dated 2021).

Test: Safety evaluation in the hepatic impairment single dose study (Example 1)
Format: in vivo, human
Method: The safety evaluation was based upon the review of the individual values (clinically significant abnormalities) and descriptive statistics (summary tables). All safety analyses were performed using the safety population and were based on the on-treatment phase (defined as the time from investigational medicinal product [IMP] administration up to Day 3 visit, inclusive). For laboratory, vital signs, and ECG data, potentially clinically significant abnormalities (PCSAs) were analyzed using the 24 May 2014 version of the PCSA list. Electrocardiogram parameters were obtained from automatic reading of 12-lead ECGs and were analyzed as raw parameter values and change from baseline. For vital signs, raw data and changes from baseline were summarized using descriptive statistics by population group and time point. All individual data for biochemistry, hematology, and qualitative urinary tests were listed.
Adverse events were coded according to the Medical Dictionary for Regulatory Activities (MedDRA v.19.1) and classified into predefined standard categories according to chronological criteria: • Pretreatment adverse events (AEs), defined as AEs that occurred, worsened (according to Investigator opinion), or became serious during the pretreatment phase (defined as the time between the signature of the informed consent and IMP administration [excluded]); • Treatment-emergent AEs (TEAEs), defined as AEs that occurred, worsened, or became serious during the on-treatment phase; • Posttreatment AEs, defined as AEs that occurred, worsened, or became serious during the posttreatment phase (defined as the time after Day 3 visit through completion of EOS).
All AEs reported in the study were listed and sorted by subject, onset date and time. The number and percentage of subjects with TEAEs were listed by population group, primary system-organ class (SOC), preferred term (PT), and AE diagnosis.

[1] = hepatic impairment study, single dose

With `CCCCCCCC(=O)N[C@H](CN1CCCC1)[C@H](O)c1ccc2c(c1)OCCO2` [eliglustat, N-((1R,2R)-1-(2,3-dihydrobenzo[b][1,4]dioxin-6-yl)-1-hydroxy-3-(pyrrolidin-1-yl)propan-2-yl)octanamide] the “Total number of mild TEAEs observed” value (all groups (healthy, mild HI, moderate HI), in 5 subjects, single dose) was 6, the “Deaths or other significant AEs” value [1] was “no deaths or other significant AEs” and the Serious adverse events [1] was “No serious adverse events were reported”. For the same compound, the “Treatment emergent PCSA (laboratory values, vital signs, ECGs)” value [1] was “no treatment emergent PCSA that were clinically relevant” and the “TEAEs considered related to study drug by the investigator” value (in 3 subjects: dysgeusia in 2 moderate HI subjects, nausea and headache in 1 healthy subject) was “Four”.
